Source: US20220243211A1, “PEPTIDE NUCLEIC ACID COMPOSITIONS WITH MODIFIED HOOGSTEEN BINDING SEGMENTS AND METHODS OF USE THEREOF” (Yale University, priority 2019, published 2022)

Legend:
Format in all cases: cell-based, human
CFBE cells at ALI = assay: Ussing chamber assay, short circuit current; details: apical PBAE/PLGA/MPG NPs, 2 mg/dose, 3 doses
Procedure: (§1) FIG. 5A is a Schematic of treatment of cells grown at ALI. FIG. 5B is a bar graph showing Ussing Chamber assay results. CFBE cells at ALI were treated apically at 2 mg/dose for 3 doses with 48 hours between each dose **p<0.001; ***p<0.002. FIG. 5C is a dot plot showing digital droplet (ddPCR) quantification of gene editing in genomic DNA isolated from CFBE cells at ALI treated apically at 2 mg/dose for 3 doses with 48 hours between each dose ***p<0.002.
Ussing experiments were performed as previously described (Bruscia, et al., Proc Natl Acad Sci USA 103, 2965-2970 (2006)). An Easy Mount Ussing Chamber System (Physiologic Instruments) was heated to 37° C. Electrode tips were prepared by partial filling with 3% agar in 3M KCl and subsequently backfilling with a 3M KCl. The Ussing chambers are equipped with current and voltage electrodes loaded with these tips. […] The transepithelial voltage and membrane resistance was measured during each pulse. Under these conditions, short circuit current (Isc) was calculated using Ohm's Law at the timepoint wherein the basolateral chamber was filled with a chloride-free solution following 20 minutes of equilibration in Kreb's Bicarbonate Ringers. […]

[1] = system: F508 del CFTR in CFBE cells at ALI; assay: Digital droplet PCR quantification of gene editing; details: apical PNA/DNA NPs, 2 mg/dose, 3 doses
Procedure: as §1
Nanoparticles were suspended in culture media, vortexted, and sonicated in a water bath (30s) and added directly to cells. For cells treated on collagen-coated plastic in 12-well plates, the cells were treated at a concentration of 2 mg/mL. For cells treated in 6-well plates at ALI, the cells were treated apically with 250 uL of media containing 2 mg of particles. […]
gDNA was extracted from CFBE cells using the Wizard SV DNA Purification System (Promega, Madison, Wis.) according to manufacturer's instructions. The concentration of extracted gDNA samples was measured using a QuBit® dsDNA BR assay kit (Invitrogen, Carlsbad, Calif.) according to manufacturer's instructions. […] Droplets were allowed to rest at 4° C. for at least 30 minutes after cycling and were then read using the QX200™ Droplet Reader (Bio-Rad). Data were analyzed using QuantaSoft™ software. […]

CFBE cells = assay: Comet assay for DNA damage; details: versus untreated cells
Procedure: FIG. 6 is a bar graph showing the results of a comet assay for DNA damage. TriTek Comet Score FreeWare was used to calculate comet tail moment for each treatment condition. Plots show the average comet tail moment which indicates the extent of DNA damage. Error bars represent the SEM; ****P<0.0001 by unpaired t-test.
50,000 CFBE cells were plated per well in 6-well plates. The following day, the cells were treated with the indicated PNA containing NPs, treated with lipfectamine alone, or transfected with CRISPR-based editing reagents. The next day, cells were collected and prepared using the Trevigen Comet Assay kit per the manufacturer's protocol (Trevigen, Gaithersburg, Md.). Briefly, cells were suspended in agarose and added to comet slides. After the agarose solidified, the slides were incubated for 1 hour in lysis solution, placed in electrophoresis solution for 30 min, then run at 21 V for 1 hour at 4° C. The slides were then placed in acetate solution for 30 min, then incubated in 70% ethanol solution for 30 min. The comet slides were then dried, stained with SYBR Green for 30 min and then visualized using an EVOS microscope. TriTek Comet Score freeware was used to analyze the images. The average comet tail moment was plotted for each condition. Error bars represent the SEM; ****P<0.0001 by unpaired t-test. […]

| Substance | Isc (short circuit current), cAMP stimulated (CFBE cells at ALI) | gene editing (ddPCR, fractional abundance of edited CFTR allele) [1] | comet tail moment (CFBE cells) |
| --- | --- | --- | --- |
| H-KKK-TJTJJTTT-OOO-TTTCCTCTATGGGTAAG-KKK-NH2 [γhCF PNA-h] (TNTNNTTTTTTCCTCTATGGGTAAG; listed as DNA, chemistry not fully specified) [tail clamp PNA targeting human CFTR gene with MPγ monomers in Hoogsteen domain] | marked increase | −5% | no significant change in comet tail moment |
| H-KKK-TJTJJTTT-OOO-TTTCCTCTATGGGTAAG-KKK-NH2 [hCF PNA] (TNTNNTTTTTTCCTCTATGGGTAAG; listed as DNA, chemistry not fully specified) | minimum Isc | minimal correction |  |
